In ChEMBL document CHEMBL1268823, “Bernthsen synthesis, antimicrobial activities and cytotoxicity of acridine derivatives” (Bioorg Med Chem Lett, 2010):
pIC50: −log10 of the molar value. In brackets after ≈: the same amount, converted by molar mass.

Columns and labels:
Staphylococcus aureus = test: Antimicrobial activity against Staphylococcus aureus by agar plate disk diffusion method; format: functional
Streptococcus pyogenes = test: Antimicrobial activity against Streptococcus pyogenes by agar plate disk diffusion method; format: functional
Escherichia coli = test: Antimicrobial activity against Escherichia coli by agar plate disk diffusion method; format: functional
Pseudomonas aeruginosa = test: Antimicrobial activity against Pseudomonas aeruginosa by agar plate disk diffusion method; format: functional
Aspergillus niger = test: Antifungal activity against Aspergillus niger by agar plate disk diffusion method; format: functional
HEp-2 = test: Cytotoxicity against human Hep2 cells by MTT assay; format: functional, cell-based
HL-60 = test: Cytotoxicity against human HL60 cells by MTT assay; format: functional, cell-based
HEK-293T = test: Cytotoxicity against human HEK293T cells by MTT assay; format: functional, cell-based

With O=c1cc(Cc2c3ccccc3nc3ccccc23)c2ccc(Cl)cc2o1 the MIC (Staphylococcus aureus) was 50 µg/mL (≈ 134 µM), the MIC (Streptococcus pyogenes) was 250 µg/mL (≈ 672 µM) and the MIC (Escherichia coli) was 50 µg/mL (≈ 134 µM). The MIC (Pseudomonas aeruginosa) was 500 µg/mL (≈ 1340 µM), the MIC (Aspergillus niger) was 1000 µg/mL (≈ 2690 µM) and the pIC50 (HEp-2) was under 4.00. For the same molecule, the pIC50 (HL-60) was 4.56 and the pIC50 (HEK-293T) was under 4.00.
Work on CCn1cc(C(=O)O)c(=O)c2cc(F)c(N3CCNCC3)cc21 [NORFLOXACIN] yielded an MIC (Staphylococcus aureus) of 10 µg/mL (≈ 31.3 µM), an MIC (Streptococcus pyogenes) of 10 µg/mL (≈ 31.3 µM) and an MIC (Escherichia coli) of 10 µg/mL (≈ 31.3 µM). For the same molecule, the MIC (Pseudomonas aeruginosa) was 10 µg/mL (≈ 31.3 µM).
For O=C(O)c1cn(C2CC2)c2cc(N3CCNCC3)c(F)cc2c1=O [CIPROFLOXACIN], the MIC (Staphylococcus aureus) was 50 µg/mL (≈ 151 µM), the MIC (Streptococcus pyogenes) was 50 µg/mL (≈ 151 µM) and the MIC (Escherichia coli) was 25 µg/mL (≈ 75.4 µM).
O=c1cc(Cc2c3ccccc3nc3ccccc23)c2cc(O)ccc2o1 gave an MIC (Staphylococcus aureus) of 500 µg/mL (≈ 1410 µM), an MIC (Streptococcus pyogenes) of 250 µg/mL (≈ 707 µM) and an MIC (Escherichia coli) of 50 µg/mL (≈ 141 µM). The MIC (Pseudomonas aeruginosa) was 100 µg/mL (≈ 283 µM), the pIC50 (HEp-2) was under 4.00 and the pIC50 (HL-60) was under 4.00. For the same molecule, the pIC50 (HEK-293T) was under 4.00.
In the case of Cc1ccc2oc(=O)cc(Cc3c4ccccc4nc4ccccc34)c2c1, the MIC (Staphylococcus aureus) was 125 µg/mL (≈ 356 µM), the MIC (Streptococcus pyogenes) was 100 µg/mL (≈ 285 µM) and the MIC (Escherichia coli) was 125 µg/mL (≈ 356 µM). It also gave an MIC (Pseudomonas aeruginosa) of 125 µg/mL (≈ 356 µM), an MIC (Aspergillus niger) of 500 µg/mL (≈ 1420 µM) and a pIC50 (HEp-2) of under 4.00. It also gave a pIC50 (HL-60) of under 4.00 and a pIC50 (HEK-293T) of under 4.00.
For O=c1cc(Cc2c3ccccc3nc3ccccc23)c2ccc(O)cc2o1, the MIC (Staphylococcus aureus) was 500 µg/mL (≈ 1410 µM), the MIC (Streptococcus pyogenes) was 500 µg/mL (≈ 1410 µM) and the MIC (Escherichia coli) was 200 µg/mL (≈ 566 µM). For the same molecule, the MIC (Pseudomonas aeruginosa) was 250 µg/mL (≈ 707 µM), the MIC (Aspergillus niger) was over 1000 µg/mL and the pIC50 (HEp-2) was under 4.00. For the same molecule, the pIC50 (HL-60) was under 4.00 and the pIC50 (HEK-293T) was under 4.00.
With NYSTATIN the MIC (Aspergillus niger) was 100 µg/mL.
Cc1ccc2c(Cc3c4ccccc4nc4ccccc34)cc(=O)oc2c1 was tested, and the MIC (Staphylococcus aureus) was 500 µg/mL (≈ 1420 µM), the MIC (Streptococcus pyogenes) was 50 µg/mL (≈ 142 µM) and the MIC (Escherichia coli) was 150 µg/mL (≈ 427 µM). For the same molecule, the MIC (Pseudomonas aeruginosa) was 62.5 µg/mL (≈ 178 µM), the MIC (Aspergillus niger) was 1000 µg/mL (≈ 2850 µM) and the pIC50 (HEp-2) was under 4.00. The pIC50 (HL-60) was under 4.00 and the pIC50 (HEK-293T) was under 4.00.
In the case of COC1=CC(=O)C[C@@H](C)[C@]12Oc1c(Cl)c(OC)cc(OC)c1C2=O [GRISEOFULVIN], the MIC (Aspergillus niger) was 100 µg/mL (≈ 283 µM).
In the case of O=c1cc(Cc2c3ccccc3nc3ccccc23)c2ccccc2o1, the MIC (Staphylococcus aureus) was 250 µg/mL (≈ 741 µM), the MIC (Streptococcus pyogenes) was 250 µg/mL (≈ 741 µM) and the MIC (Escherichia coli) was 250 µg/mL (≈ 741 µM). It also gave an MIC (Pseudomonas aeruginosa) of 250 µg/mL (≈ 741 µM), an MIC (Aspergillus niger) of 500 µg/mL (≈ 1480 µM) and a pIC50 (HEp-2) of under 4.00. It also gave a pIC50 (HL-60) of under 4.00 and a pIC50 (HEK-293T) of under 4.00.
Work on O=c1cc(Cc2c3ccccc3nc3ccccc23)c2cc(Cl)ccc2o1 yielded an MIC (Staphylococcus aureus) of 250 µg/mL (≈ 672 µM), an MIC (Streptococcus pyogenes) of 75 µg/mL (≈ 202 µM) and an MIC (Escherichia coli) of 75 µg/mL (≈ 202 µM). It also gave an MIC (Pseudomonas aeruginosa) of 25 µg/mL (≈ 67.2 µM), an MIC (Aspergillus niger) of 1000 µg/mL (≈ 2690 µM) and a pIC50 (HEp-2) of under 4.00. It also gave a pIC50 (HL-60) of 4.54 and a pIC50 (HEK-293T) of under 4.00.
Molecule O=P1(N(CCCl)CCCl)NCCCO1 (stereo not drawn) [CYCLOPHOSPHAMIDE ANHYDROUS] has a pIC50 (HEp-2) of under 4.00, a pIC50 (HL-60) of 5.06 and a pIC50 (HEK-293T) of under 4.00.
O=c1cc(Cc2c3ccccc3nc3ccccc23)c2ccc([N+](=O)[O-])cc2o1 showed an MIC (Staphylococcus aureus) of 250 µg/mL (≈ 654 µM), an MIC (Streptococcus pyogenes) of 500 µg/mL (≈ 1310 µM) and an MIC (Escherichia coli) of 100 µg/mL (≈ 262 µM). The MIC (Pseudomonas aeruginosa) was 200 µg/mL (≈ 523 µM), the MIC (Aspergillus niger) was 500 µg/mL (≈ 1310 µM) and the pIC50 (HEp-2) was under 4.00. For the same molecule, the pIC50 (HL-60) was under 4.00 and the pIC50 (HEK-293T) was under 4.00.
Work on O=C(N[C@H](CO)[C@H](O)c1ccc([N+](=O)[O-])cc1)C(Cl)Cl [CHLORAMPHENICOL] yielded an MIC (Staphylococcus aureus) of 50 µg/mL (≈ 155 µM), an MIC (Streptococcus pyogenes) of 50 µg/mL (≈ 155 µM) and an MIC (Escherichia coli) of 50 µg/mL (≈ 155 µM). For the same molecule, the MIC (Pseudomonas aeruginosa) was 50 µg/mL (≈ 155 µM).
Work on CC1(C)S[C@@H]2[C@H](NC(=O)[C@H](N)c3ccccc3)C(=O)N2[C@H]1C(=O)O [AMPICILLIN] yielded an MIC (Staphylococcus aureus) of 250 µg/mL (≈ 715 µM), an MIC (Streptococcus pyogenes) of 100 µg/mL (≈ 286 µM) and an MIC (Escherichia coli) of 100 µg/mL (≈ 286 µM). It also gave an MIC (Pseudomonas aeruginosa) of 100 µg/mL (≈ 286 µM).
